Measured values reported in PubChem BioAssay AID850 (SRMLSC, 2007).
Activity calls are given as the source filed them. The rule behind the calls is not given here.

What was measured:
[1] = yeast lifespan-shortening chemical project counter-assay, dose-response inhibition of growth under permissive conditions (AID 850); conditions: Saccharomyces cerevisiae growth inhibition, permissive control, measured here: maximum growth inhibition, stronger effect = higher value;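 note: growth read as optical density after one day of incubation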
[2] = system: Saccharomyces cerevisiae growth inhibition, permissive control; assay: as above

Structure (SMILES)	inhibition ([1]; at 50 µM) [%]	IC50 [2]	other results
NC(N)=N/N=C/c1ccc(OCc2ccc(Cl)cc2Cl)cc1	101	28.1 µM	
CCc1cccc(CC)c1NC(=S)NCc1ccc2[nH]c(C)cc2c1	13.8	> 100 µM (inactive)	
CNc1nnc(-c2cc3cc(Cl)ccc3oc2=O)s1		> 100 µM (inactive)	inhibition ([1]; at 25 µM): 12.5%
Cc1cc(C(=O)COC(=O)c2ccc[nH]c2=O)c(C)n1-c1ccc(F)cc1	12.8	> 100 µM (inactive)	
O=c1cc(C(F)(F)F)[nH]c2c(C(F)(F)F)cccc12	97.5	11.2 µM	
O=C(c1ccc(Cl)cc1)c1c[nH]c(C(=O)C(Cl)(Cl)Cl)c1	77.6	47.4 µM	
Oc1cc(-c2ccccc2)c2ccccc2c1	92.8	35.3 µM	
COc1ccc(CN2CN(C(C)C)CSC2=S)cc1	26.3	> 100 µM (inactive)	
CCOC(=O)c1cnc(-n2nc(C)cc2C)nc1NC1CCCCC1	57.5	42.8 µM	
CC(C)(Oc1ccc(Cl)cc1)C(=O)NC1=NN(c2ccccc2)C(=O)C1	88.3	21.5 µM	
Cn1c(-c2ccco2)nc2cc3ccccc3cc21	52.4	49.4 µM	
CC(N=Cc1cccc(O)c1O)c1ccccc1 (configuration not stated)	98	9.56 µM	
COc1ccc2nc(/N=C(\N)NC(=O)Nc3ccccc3)nc(C)c2c1	73.7	33.8 µM	
O=C(/C=C/c1ccccc1Cl)c1ccccc(=O)c1O	101	11.5 µM	
Clc1ccc(N=c2ssnc2Cl)cc1	66.3	32.6 µM	
Oc1c(CN2CCN(c3ccccn3)CC2)cc(Cl)c2cccnc12	95.9	26.5 µM	
C/C(=N\NC(=O)c1ccc(CSc2cccc3cccnc23)cc1)C1CCCCC1	93.4	29.7 µM	
COc1cc(OC)c(C2CC(=O)N3CN(C)CSC3=C2C#N)cc1OC (configuration not stated)		> 100 µM (inactive)	inhibition ([1]; at 0.781 µM): 11%
Clc1ccc(N/N=C/c2ccncc2)cc1Cl	21.4	> 100 µM (inactive)	
Cc1cccc(C(=O)Oc2csc(=S)n2C(=O)c2cccc(C)c2)c1	55.6	47.8 µM	
CN1C(=O)C2(N=c3ccccc3=N2)c2ccccc21	21.4	> 100 µM (inactive)	

Structure (SMILES)	inhibition ([1]; at 50 µM) [%]	IC50 [2]	other results
CCCCCCCCCCCCCCCC[n+]1cccc(C(=O)N(CC)CC)c1	101	1.82 µM	
O=C(c1cc(-c2ccccc2O)on1)N1CCc2ccccc2C1		> 100 µM (inactive)	inhibition ([1]; at 0.391 µM): 16.3%
CN(c1ccccc1)c1ccc(/C=C/[N+](=O)[O-])cc1	98.4	16.8 µM	
Cc1ccc2c(c1)C(=NC1CCCCC1)c1cc3ccccc3nc1-2		> 100 µM (inactive)	inhibition ([1]; at 12.5 µM): 22.8%
O=C1CC(N2CCN(c3nc4ccccc4s3)CC2)C(=O)N1Cc1cccs1 (configuration not stated)		> 100 µM (inactive)	inhibition ([1]; at 0.781 µM): 28.5%
CC(=O)N1CCN(c2ccc(OC[C@H]3CO[C@](Cn4ccnc4)(c4ccc(Cl)cc4Cl)O3)cc2)CC1	96	4.25 µM	
O=C(Oc1csc(=S)n1C(=O)c1ccccc1)c1ccccc1		> 100 µM (inactive)	inhibition ([1]; at 12.5 µM): 11.4%
O=C(/C(=N/N=C/c1ccc(O)c(O)c1O)c1ccccc1)c1ccccc1		> 100 µM (inactive)	inhibition ([1]; at 0.781 µM): 5.74%
Cc1ccc(CNC(=O)CS(=O)Cc2nc(-c3cccs3)oc2C)cc1 (configuration not stated)		> 100 µM (inactive)	inhibition ([1]; at 0.391 µM): 13.8%
COc1ccc(NC(=O)C2CCCN2S(=O)(=O)c2cccc3cccnc23)c(OC)c1 (configuration not stated)	102	5.82 µM	
CC(Oc1ccc(Cl)cc1Cl)C(=O)NC1=NN(c2ccccc2)C(=O)C1 (configuration not stated)	98.6	16.6 µM	
COc1ccc(-c2cc(-c3ccccc3O)[nH]n2)cc1		> 100 µM (inactive)	inhibition ([1]; at 1.563 µM): 3.65%
O=C(Cc1ccccc1)NCCc1cn2ccsc2n1		> 100 µM (inactive)	inhibition ([1]; at 0.391 µM): 26%
COc1ccc(OC)c(CCNC(=O)Cn2sc3nc(C)cc(C)c3c2=O)c1		> 100 µM (inactive)	inhibition ([1]; at 0.391 µM): 13%
Cc1ccc2c(c1)c1c(n2C)-c2[nH]ncc2CC1	71.1	38.2 µM	
COC(=O)c1ccc(CSc2ccc3nnc(-c4cccc(F)c4)n3n2)o1		> 100 µM (inactive)	inhibition ([1]; at 6.25 µM): 17.7%
CC(NC(=O)/C(C#N)=C/c1ccc(Cl)c([N+](=O)[O-])c1)c1ccccc1 (configuration not stated)	15	> 100 µM (inactive)	
CCC(=C(c1ccc(OC)cc1)c1ccc(OC)cc1)c1cn(CC(O)CN2CCN(C)CC2)c2ccccc12 (configuration not stated)	93.2	33.9 µM	
COc1ccccc1C(=O)NNC(=S)NC(=O)c1ccco1	29.3	> 100 µM (inactive)	
Cc1ccc2c(c1)-c1nc3ccccc3cc1C2=NC1CCCCC1	16.8	> 100 µM (inactive)	
O=C(Nc1nnc(-c2ccc(F)cc2)o1)c1cc(Cl)sc1Cl	81.8	36.8 µM	

Structure (SMILES)	inhibition ([1]; at 50 µM) [%]	IC50 [2]	other results
Cn1c(=O)c(C(=O)Nc2ncccn2)c(O)c2ccccc21	56.6	49.9 µM	
Cc1ccc(-c2[nH]nc(N)c2N=Nc2ccccc2C)cc1		> 100 µM (inactive)	inhibition ([1]; at 0.391 µM): 17.6%
Cc1ccc(NC(=O)CSC2=C(C#N)C(c3ccc4c(c3)OCO4)C3=C(CCCC3=O)N2)c(C)c1 (configuration not stated)		> 100 µM (inactive)	inhibition ([1]; at 0.195 µM): 8.26%
O=C(N/N=C\c1cccc([N+](=O)[O-])c1O)C1COc2ccccc2O1 (configuration not stated)	74.8	22 µM	
CC1=C(C)CC2C(=O)N(c3cccc4ccccc34)C(=O)C2C1 (configuration not stated)	8.57	> 100 µM (inactive)	
COc1ccc(C(=O)N/N=C/c2sc3ccccc3c2O)cc1		> 100 µM (inactive)	inhibition ([1]; at 0.781 µM): 17%
Cc1cc(=O)[nH]c(SCc2nc3ccccc3s2)n1		> 100 µM (inactive)	inhibition ([1]; at 25 µM): 13%
COc1cccc(-n2nnnc2S(C)(=O)=O)c1	83.2	23.9 µM	
CCOC(=O)/C(=N\Nc1ccccc1Cl)N1CCN(Cc2ccccc2)CC1	73.9	26.8 µM	
Cc1ccc2nc(/C(C#N)=C\c3ccc([N+](=O)[O-])o3)[nH]c2c1	99.4	9.15 µM	
OCc1ccnc2c(O)cccc12	44.1	50.6 µM	
CN(O)/C=c1/ccc2c(n1)C(=O)C=CC=2		8.03 µM	inhibition ([1]; at 12.5 µM): 98%
COc1cc(/C=N/N(C)c2ccccc2)cc(Cl)c1O		> 100 µM (inactive)	inhibition ([1]; at 1.563 µM): 14.6%
COc1cc(OC)nc(NC(=O)CS(=O)(=O)c2ccccc2)n1	77.3	17.4 µM	
NNC(=O)c1ccc(COc2cccc3ccccc23)cc1	94.7	20 µM	
O=C(O)c1ccc2nc(-c3ccccc3)sc2c1		> 100 µM (inactive)	inhibition ([1]; at 0.781 µM): 28.2%
CCc1cccc(C)c1NC(=S)NCCc1c(C)[nH]c2ccc(C)cc12	8.58	> 100 µM (inactive)	
Cc1cccc(-c2nnc3sc(-c4ccccc4C)nn23)c1	29.1	> 100 µM (inactive)	
Cn1cccc1Cc1nnc(SCC(=O)Nc2nccs2)n1CCc1ccccc1		> 100 µM (inactive)	inhibition ([1]; at 6.25 µM): 29%
CC1CCN(c2nc(/C=C/c3ccccc3)nc3ccccc23)CC1	100	22.2 µM	
COc1ccccc1N1CCN(Cc2cc(Br)c(O)c3ncccc23)CC1	99.6	12.7 µM	

Structure (SMILES)	inhibition ([1]; at 50 µM) [%]	IC50 [2]	other results
Cc1ccc(C(NC(=O)C(C)C)c2cc([N+](=O)[O-])c3cccnc3c2O)cc1 (configuration not stated)	90.4	28.8 µM	
Clc1cc2nc3ccccn3c2cc1Cl	16	> 100 µM (inactive)	
N/C(Cc1ccc(Cl)cc1Cl)=N\OC(=O)c1cccs1		0.925 µM	inhibition ([1]; at 12.5 µM): 100%
CCN1CCN(c2ncnc3c2sc(=S)n3-c2ccccc2)CC1		> 100 µM (inactive)	inhibition ([1]; at 0.195 µM): 15.6%
CCN1/C(=C/c2ccc3cccc(C)c3[n+]2CC)Sc2ccccc21	99.4	8.03 µM	
O=C(CC(=O)c1ccccc1O)c1ccc(F)cc1		30.1 µM	inhibition ([1]; at 25 µM): 37%
CN1CCN(CC(=O)N2CCn3c4c(c5cc(C6CCCCC6)ccc53)CCCC42)CC1 (configuration not stated)		> 100 µM (inactive)	inhibition ([1]; at 1.563 µM): 6.73%
CC1CCCC2(C1)NC(=S)c1c(sc3c1CCCC3)N2 (configuration not stated)		> 100 µM (inactive)	inhibition ([1]; at 0.781 µM): 10.2%
C=CCNC(=S)N/N=C(\C)c1ccccn1	99.4	13.8 µM	
Cc1ccc(/C=C/C(=O)c2ccccc(=O)c2O)cc1C		4.5 µM	inhibition ([1]; at 25 µM): 98.9%
Oc1c(Br)cc(Br)cc1C=Nc1ccc2c(c1)OCO2	86	36.5 µM	
O=S(=O)(/N=C(\Sc1ccc(Cl)cc1)c1ccccc1)c1ccccc1	74	33.3 µM	
N#C/C(=C\c1ccc([N+](=O)[O-])o1)c1nc2ccccc2[nH]1		> 100 µM (inactive)	inhibition ([1]; at 6.25 µM): 21.4%
Cc1c(C(=O)O)cccc1-c1ccc(/C=N/Nc2ccc(Br)cc2)o1	95.6	13.1 µM	
Cc1cccc(Nc2nc(-c3ccccn3)cs2)n1		13.3 µM	inhibition ([1]; at 25 µM): 63.1%
O=C1C(=C2CCCCC2)SC(=S)N1Cc1ccco1	11.2	> 100 µM (inactive)	
COC(=O)c1ccc(C(=O)OC)c(NC(=O)CSc2cccc[n+]2[O-])c1		1.09 µM	inhibition [1]: 100%
CCSc1ncc(/C=N/Nc2ccc(Cl)cc2)n1C	94.7	6.82 µM	
